Assay results reported in the NIST ThermoML archive (doi:10.1021/acs.jced.8b00979).
± gives the expanded uncertainty stated by the source.

What was measured:
[1] = xn = mol fraction of the nth substance listed; settings: 100 kPa, Liquid, x1 = 1; for viscosity: Capillary tube (Ostwald / Ubbelohde) method; for mass density: Vibrating tube method
[2] = 100 kPa, Liquid; for viscosity: Capillary tube (Ostwald / Ubbelohde) method; for mass density: Vibrating tube method

## CCCC(C)O (stereo not drawn) [pentan-2-ol] + CCC(C)CO
[1]; 288.15 K
  viscosity: 5.057 ± 0.2 mPa·s
  mass density: 813.34 ± 0.79 kg/m3
[1]; 293.15 K
  viscosity: 4.174 ± 0.17 mPa·s
  mass density: 809.38 ± 0.78 kg/m3
[1]; 298.15 K
  viscosity: 3.398 ± 0.14 mPa·s
  mass density: 805.35 ± 0.78 kg/m3
[1]; 303.15 K
  viscosity: 2.82 ± 0.11 mPa·s
  mass density: 801.24 ± 0.78 kg/m3
[1]; 308.15 K
  viscosity: 2.336 ± 0.094 mPa·s
  mass density: 797.05 ± 0.77 kg/m3
[1]; 313.15 K
  viscosity: 1.99 ± 0.08 mPa·s
  mass density: 792.78 ± 0.77 kg/m3
[1]; 318.15 K
  viscosity: 1.706 ± 0.069 mPa·s
  mass density: 788.42 ± 0.77 kg/m3
[1]; 323.15 K
  viscosity: 1.472 ± 0.06 mPa·s
  mass density: 783.99 ± 0.76 kg/m3
[1]; 328.15 K
  viscosity: 1.306 ± 0.053 mPa·s
  mass density: 779.46 ± 0.76 kg/m3

## CCCC(C)O (stereo not drawn) [pentan-2-ol]
[2]; 288.15 K
  viscosity: 5.057 ± 0.2 mPa·s
  mass density: 813.34 ± 0.79 kg/m3
[2]; 293.15 K
  viscosity: 4.174 ± 0.17 mPa·s
  mass density: 809.38 ± 0.78 kg/m3
[2]; 298.15 K
  viscosity: 3.398 ± 0.14 mPa·s
  mass density: 805.35 ± 0.78 kg/m3
[2]; 303.15 K
  viscosity: 2.82 ± 0.11 mPa·s
  mass density: 801.24 ± 0.78 kg/m3
[2]; 308.15 K
  viscosity: 2.336 ± 0.094 mPa·s
  mass density: 797.05 ± 0.77 kg/m3
[2]; 313.15 K
  viscosity: 1.99 ± 0.08 mPa·s
  mass density: 792.78 ± 0.77 kg/m3
[2]; 318.15 K
  viscosity: 1.706 ± 0.069 mPa·s
  mass density: 788.42 ± 0.77 kg/m3
[2]; 323.15 K
  viscosity: 1.472 ± 0.06 mPa·s
  mass density: 783.99 ± 0.76 kg/m3
[2]; 328.15 K
  viscosity: 1.306 ± 0.053 mPa·s
  mass density: 779.46 ± 0.76 kg/m3

## CCCCCO [pentan-1-ol]
[2]; 288.15 K
  viscosity: 4.698 ± 0.19 mPa·s
  mass density: 818.56 ± 0.79 kg/m3
[2]; 293.15 K
  viscosity: 4.043 ± 0.16 mPa·s
  mass density: 814.92 ± 0.79 kg/m3
[2]; 298.15 K
  viscosity: 3.501 ± 0.14 mPa·s
  mass density: 811.26 ± 0.79 kg/m3
[2]; 303.15 K
  viscosity: 3.028 ± 0.12 mPa·s
  mass density: 807.57 ± 0.78 kg/m3
[2]; 308.15 K
  viscosity: 2.671 ± 0.11 mPa·s
  mass density: 803.86 ± 0.78 kg/m3
[2]; 313.15 K
  viscosity: 2.335 ± 0.094 mPa·s
  mass density: 800.11 ± 0.78 kg/m3
[2]; 318.15 K
  viscosity: 2.052 ± 0.083 mPa·s
  mass density: 796.32 ± 0.77 kg/m3
[2]; 323.15 K
  viscosity: 1.81 ± 0.073 mPa·s
  mass density: 792.48 ± 0.77 kg/m3
[2]; 328.15 K
  viscosity: 1.607 ± 0.065 mPa·s
  mass density: 788.61 ± 0.76 kg/m3

## CCCCCO [pentan-1-ol] + CCC(C)CO
[1]; 288.15 K
  viscosity: 4.698 ± 0.19 mPa·s
  mass density: 818.56 ± 0.79 kg/m3
[1]; 293.15 K
  viscosity: 4.043 ± 0.16 mPa·s
  mass density: 814.92 ± 0.79 kg/m3
[1]; 298.15 K
  viscosity: 3.501 ± 0.14 mPa·s
  mass density: 811.26 ± 0.79 kg/m3
[1]; 303.15 K
  viscosity: 3.028 ± 0.12 mPa·s
  mass density: 807.57 ± 0.78 kg/m3
[1]; 308.15 K
  viscosity: 2.671 ± 0.11 mPa·s
  mass density: 803.86 ± 0.78 kg/m3
[1]; 313.15 K
  viscosity: 2.335 ± 0.094 mPa·s
  mass density: 800.11 ± 0.78 kg/m3
[1]; 318.15 K
  viscosity: 2.052 ± 0.083 mPa·s
  mass density: 796.32 ± 0.77 kg/m3
[1]; 323.15 K
  viscosity: 1.81 ± 0.073 mPa·s
  mass density: 792.48 ± 0.77 kg/m3
[1]; 328.15 K
  viscosity: 1.607 ± 0.065 mPa·s
  mass density: 788.61 ± 0.76 kg/m3

## CCCCCO [pentan-1-ol] + CCCC(C)O
[1]; 288.15 K
  viscosity: 4.698 ± 0.19 mPa·s
  mass density: 818.56 ± 0.79 kg/m3
[1]; 293.15 K
  viscosity: 4.043 ± 0.16 mPa·s
  mass density: 814.92 ± 0.79 kg/m3
[1]; 298.15 K
  viscosity: 3.501 ± 0.14 mPa·s
  mass density: 811.26 ± 0.79 kg/m3
[1]; 303.15 K
  viscosity: 3.028 ± 0.12 mPa·s
  mass density: 807.57 ± 0.78 kg/m3
[1]; 308.15 K
  viscosity: 2.671 ± 0.11 mPa·s
  mass density: 803.86 ± 0.78 kg/m3
[1]; 313.15 K
  viscosity: 2.335 ± 0.094 mPa·s
  mass density: 800.11 ± 0.78 kg/m3
[1]; 318.15 K
  viscosity: 2.052 ± 0.083 mPa·s
  mass density: 796.32 ± 0.77 kg/m3
[1]; 323.15 K
  viscosity: 1.81 ± 0.073 mPa·s
  mass density: 792.48 ± 0.77 kg/m3
[1]; 328.15 K
  viscosity: 1.607 ± 0.065 mPa·s
  mass density: 788.61 ± 0.76 kg/m3

## CCC(C)CO (stereo not drawn) [2-methyl-1-butanol]
[2]; 288.15 K
  viscosity: 6.439 ± 0.26 mPa·s
  mass density: 823.35 ± 0.8 kg/m3
[2]; 293.15 K
  viscosity: 5.3 ± 0.21 mPa·s
  mass density: 819.64 ± 0.79 kg/m3
[2]; 298.15 K
  viscosity: 4.501 ± 0.18 mPa·s
  mass density: 815.85 ± 0.79 kg/m3
[2]; 303.15 K
  viscosity: 3.825 ± 0.15 mPa·s
  mass density: 812.12 ± 0.79 kg/m3
[2]; 308.15 K
  viscosity: 3.265 ± 0.13 mPa·s
  mass density: 808.29 ± 0.78 kg/m3
[2]; 313.15 K
  viscosity: 2.783 ± 0.11 mPa·s
  mass density: 804.41 ± 0.78 kg/m3
[2]; 318.15 K
  viscosity: 2.379 ± 0.096 mPa·s
  mass density: 800.47 ± 0.78 kg/m3
[2]; 323.15 K
  viscosity: 2.06 ± 0.083 mPa·s
  mass density: 796.47 ± 0.77 kg/m3
[2]; 328.15 K
  viscosity: 1.787 ± 0.072 mPa·s
  mass density: 792.41 ± 0.77 kg/m3
